One data set concerns tension-type headache. The settings on record: Brennum et al. 1992, 1996; cited from earlier work.
A further data set has as its system migraine. The settings on record: in vivo; cited from earlier work.
The test system of a further data set is GABA A. Particulars: binding studies; cited from earlier work.
For data set [1], the system named is patients with chronic tension-type headache. As to the kind of experiment: Open labelled pilot study of prophylactic Gabapentin in chronic tension-type headache. Format: in vivo, human. An excerpt:
Three patients with a diagnosis of chronic tension-type headache according to the International Headache Society (Headache Classification Committee 1988) were recruited from the outpatient headache clinic at Glostrup Hospital. The patients were males with a mean age of 42 years (range 35-49). The mean life time duration of chronic tension-type headache was 16 years (range 7-21). […] Exclusion criteria were: daily major medication (including prophylactic headache therapy); abuse of analgesics or alcohol; serious somatic or psychiatric diseases including depression.
Using an open labelled design, patients fulfilled a diagnostic headache diary during at least 4 weeks run-in period to ensure the diagnostic criteria. Thereafter, the patients received Gabapentin (Neurontin®) tablets, initially 300 mg (one tablet) per day on day one, increasing with 300 mg (1 tablet) per day to 900 mg (3 tablets) on day 3. The treatment period lasted 4 weeks, and during this period patients were asked to continue with headache diaries, and record headache intensity, frequency, duration, any medication taken and any possible adverse events. At a follow up visit at day 29-32, diaries were collected and any adverse events and evaluation of the treatment were recorded. Due to the low number of patients, no statistical analysis were done. The primary efficacy parameters were headache intensity, frequency and duration, and the mean values from the run-in period were compared to those obtained during the treatment period.

Data set [2] has as its system alpha-2-subunit of a calcium channel. Particulars: Gee et al. 1996; cited from earlier work.
Data set [3] relates to patients with chronic tension-type headache. Nature of the data set: Open labelled pilot study of prophylactic Dextromethorphan in chronic tension-type headache. Format: in vivo, human. An excerpt:
Five patients with a diagnosis of chronic tension-type headache according to the International Headache Society (Headache Classification Committee 1988) were recruited from the outpatient headache clinic at Glostrup Hospital. There were 2 males and 3 females, and the mean age was 45.4 years (range 39-48). The mean life time duration of chronic tension-type headache was 12.2 years (range 4-25). One patient had coexisting but infrequent migraine. Exclusion criteria were: daily major medication (including prophylactic headache therapy); abuse of analgesics or alcohol; serious somatic or psychiatric diseases including depression.
Using an open labelled design, patients fulfilled a diagnostic headache diary during at least 4 weeks run-in period to ensure the diagnostic criteria. Thereafter, the patients received Dextromethorphan (Dexofan®) tablets at 30 mg each, three times per day. The treatment period lasted 4 weeks, and during this period patients were asked to continue with headache diaries, and record headache intensity, frequency, duration, any medication taken and any possible adverse events. At a follow up visit at day 29-32, diaries were collected and possible adverse events and evaluation of the treatment were recorded. Due to the restricted number of patients, no statistical analysis were done. The efficacy parameters were headache intensity, frequency and duration, and intake of simple analgesics. Mean values from the run-in period were compared to those obtained during the treatment period.

Data set [4] has the same test system. Nature of the data set: Double-blind crossover study of intravenous L-NMMA versus placebo in chronic tension-type headache. Format: in vivo, human. As to the method:
Five patients with coexisting infrequent migraine (≤ one day/month) were accepted. […] At screening, a full physical and neurological examination, including 12-lead ECG were carried out. Blood samples for routine haematological and biochemical testing, and urine sample for urinanalysis were taken. The patients were not allowed to take analgesics 12 hours prior to the treatment. […] All patients gave written informed consent to participate in the study, which was approved by the local ethics committee and conducted in accordance with the Declaration of Helsinki.
Using a double-blind crossover design, the patients were randomised to receive 6 mg/kg L-NMMA (Clinalfa, Switzerland) or placebo (isotone glucose) on two days with a typical episode of tension-type headache separated by at least one week. Randomisation (Med.Stat) and drug preparation were performed by staff not involved in the study. The medication was given over 15 minutes into an antecubital vein (Braun Perfusor). The following parameters were measured at baseline and 15, 30, 60 and 120 minutes post administration: headache intensity on a 100-mm Visual Analog Scale (VAS) (0 - no headache and 100 - worst imaginable headache) and on a Verbal Rating Scale (VRS) from 0-10 (0 - no headache; 5 - moderate headache; 10 - worst imaginable headache). Blood pressure and pulse rate were measured 5 minutes prior to administration of treatment and at 5, 10, 15, 20, 25, 30, 60, 90 and 120 minutes post administration. Twelve-lead ECG was monitored continuously. Any adverse events were recorded. Patients with unrelieved headache at 120 minutes post treatment were allowed to take rescue medication. All patients were asked to record details of the following on a diary card at 4, 8, 12, 16, 20 and 24 hours post administration: headache intensity on VRS, any medication taken and adverse events. Between 4-7 days after each treatment, the patients returned to the clinic, the diary cards were collected and any adverse events were noted.
The secondary endpoints were reduction of pain intensity at 30, 60, 90 and 120 minutes post dosing on VAS and VRS compared to pre-treatment pain score within each treatment. Comparison of pain intensity on VAS, blood pressure and pulse rate over time between treatments were performed with ANOVA. Paired-Samples T Test was used to compare pre-treatment pain score on VAS with pain score at 30, 60, 90, 120 minutes post dosing within each treatment. […] These sums of differences for each treatment were compared by Wilcoxon Signed Rank test. Five percent was accepted as level of significance.

Where [5] appears, read: 0-10 VAS intensity scale, mean, before treatment.
Setting [6] is: 100-mm VAS, 6 mg/kg L-NMMA i.v. over 15 minutes, mean (SD), p < 0.05 vs pretreatment.

Molecules are shown by their SMILES. Structures can show the parent of a compound that is named as a salt.

As to `CNS(=O)(=O)Cc1ccc2[nH]cc(CCN(C)C)c2c1` [sumatriptan], the “Efficacy in tension-type headache” value in the data set with tension-type headache is “not effective to a clinically relevant extent”. Further, in the data set with migraine, the Efficacy in migraine result is recorded as “highly effective”.

Turning to `NCC1(CC(=O)O)CCCCC1` [Gabapentin], in the data set on GABA A, the “Affinity for GABA A” value is given as “fail to show affinity”. Moreover, the “Headache intensity during active treatment” value in data set [1] (0-10 VAS intensity scale, mean, 4 weeks) was 3.6. Also, in data set [1] (setting [5]), the “Headache intensity during run-in period” value was found to be 5.5. Further, in data set [1] (before treatment), the “Frequency of headache during run-in period” value turned out to be 23.5 days per 4 weeks and the “Mean daily intake of analgesics, run-in” value is reported as 1.1 dose per day. For the same compound, in data set [1] (complete relief of the headache after 2 days treatment), the “Individual response, one patient” value is given as “excellent effect”. In addition, in data set [1] (disappeared completely after cessation of the drug intake), the “Side effects in the third patient” value is “sedation, vertigo and slight nausea”. For the same compound, in data set [1] (in vivo), the “Frequency of headache during the active treatment period” value came out at 13 days per 4 weeks and the “Mean daily intake of analgesics, active treatment” value was determined as 0.3 dose per day. Besides, in data set [1] (on any of efficacy parameters), the “Individual response, third patient” value is “no significant effect”. The “Individual response, another patient” value in data set [1] (on headache intensity and frequency) is listed as “moderate effect”. Moreover, the “Decrease of headache intensity” value in data set [1] (treatment period (4 weeks, up to 900 mg per day) vs run-in, 3 patients) turned out to be 35%. Moreover, in data set [1] (treatment period vs run-in), the “Decrease of frequency of headache” value is on record as 45%, the “Decrease of mean daily intake of analgesics” value is on record as 72% and the “Reduction of duration of the individual headache episode” value stood at 8%. Also, the “Binding affinity to the alpha-2-subunit of a calcium channel” value in data set [2] is “showed binding affinity”.

In the case of `COc1ccc2c(c1)[C@]13CCCC[C@@H]1[C@H](C2)N(C)CC3` [Dextromethorphan], the “Intensity of headache during active treatment” value in data set [3] (0-10 VAS intensity scale, mean) came out at 3.6. In data set [3] (setting [5]), the “Intensity of headache during the run-in period” value is given as 4.4. In addition, in data set [3] (before treatment), the “Frequency of headache during run-in” value was 28 days per 4 weeks period and the “Mean intake of analgesics during run-in period” value is reported as 1.8 dose per day. The “Patients reporting a marked effect” value in data set [3] (considerable relief of headache intensity and duration within very few days, of 5 patients) is on record as “Two”. In data set [3] (in vivo), the “Frequency of headache during active treatment” value was determined as 27 days per 4 weeks period and the “Mean intake of analgesics during active treatment” value is given as 0.5 dose per day. Further, in data set [3] (of 5 patients), the “Patients reporting no effect at all” value is recorded as “two”, the “Patients reporting no side effects” value is “Four” and the “Patients with a slight relief of headache intensity” value is listed as “one”. Also, the “Patients with marked side effects with sedation” value in data set [3] (the patient with best clinical response, diminished after dose reduction to 40 mg per day) is listed as “one”. Further, in data set [3] (treatment period (4 weeks, 30 mg three times per day) vs run-in, 5 patients), the “Reduction of intensity of headache” value came to 18%. Also, in data set [3] (treatment period vs run-in), the “Decrease of frequency of headache” value is given as 4%, the “Decrease of intake of analgesics” value was 72% and the “Reduction of duration of the individual headache episode” value was found to be 11%.

With `CNC(=N)NCCC[C@H](N)C(=O)O` [L-NMMA, L- N^G methyl arginine hydrochloride], in data set [4] (setting [6]), the “Pain scores on VAS, 30 minutes post dosing” value stood at 38 ± 18; the “Pain scores on VAS, 60 minutes post dosing” value stood at 35 ± 18; the “Pain scores on VAS, 90 minutes post dosing” value is listed as 34 ± 21; the “Pain scores on VAS, 120 minutes post dosing” value worked out at 33 ± 21. The “Pain scores on VAS before treatment (Baseline)” value in data set [4] (100-mm VAS, pre-treatment value on the L-NMMA day, 16 patients, mean (SD)) stood at 49 ± 16. Moreover, the “Pain intensity on VRS compared with placebo” value in data set [4] (Verbal Rating Scale 0-10, sum of differences, Wilcoxon, p=0.02) is “significantly lower after treatment with L-NMMA than after treatment with placebo”. The “Withdrawal from the study because of side effects” value in data set [4] (in vivo) is “No patients withdrew from the study because of side effects”. For the same compound, the “Maximum decrease in pulse rate” value in data set [4] (occurred 10 minutes post dosing, 6 mg/kg i.v.) was 16 ± 2%. Besides, in data set [4] (occurred 15 minutes post dosing, 6 mg/kg i.v.), the “Maximum increase in mean arterial blood pressure (MAP)” value is recorded as 12 ± 2%. For the same compound, in data set [4] (of 16 patients), the “Patients reporting subjective symptoms in relation to the infusion” value was “Seven”, the “Subjective symptom: a feeling of tingling in arm (number of patients)” value is listed as 1, the “Subjective symptom: drowsiness (number of patients)” value stood at 1 and the “Subjective symptom: dryness of the mouth (number of patients)” value is listed as 3. For the same compound, in data set [4] (of 16 patients), the “Subjective symptom: exhaustion (number of patients)” value is 1, the “Subjective symptom: nausea (number of patients)” value came out at 1 and the “Subjective symptom: tiredness (number of patients)” value was found to be 2. Further, the “Patients who used simple analgesics as rescue medication” value in data set [4] (of 16 patients, 7 on placebo) is “Three”. Further, the “Reduction of pain intensity (VAS) over time compared with placebo” value in data set [4] (primary endpoint, ANOVA, p=0.007, 16 patients, hydrochloride) is on record as “reduced pain intensity (VAS) over time significantly more than placebo”.

These data come from patent publication EP1829539A2, “A method for treating tension-type headache” (priority 1996, dated 1998).
